These are literature values, as cited in EP1336411A1, “Compositions and methods for improving enzyme replacement therapy of lysosomal storage diseases” (Academisch Medisch Centrum bij de Universiteit van Amsterdam, priority 2002, dated 2003).

In general, Km refers to the substrate concentration at which the rate is half of its maximum.

The target of the series is alpha-Galactosidase A (Homo sapiens, UniProt P06280). The note with it: read-out: apparent Km; artificial substrate 4-methylumbelliferyl-alpha-D-galactopyranoside; pH 4.6 (maximal activity).
Sequence of alpha-Galactosidase A (P06280 32-429): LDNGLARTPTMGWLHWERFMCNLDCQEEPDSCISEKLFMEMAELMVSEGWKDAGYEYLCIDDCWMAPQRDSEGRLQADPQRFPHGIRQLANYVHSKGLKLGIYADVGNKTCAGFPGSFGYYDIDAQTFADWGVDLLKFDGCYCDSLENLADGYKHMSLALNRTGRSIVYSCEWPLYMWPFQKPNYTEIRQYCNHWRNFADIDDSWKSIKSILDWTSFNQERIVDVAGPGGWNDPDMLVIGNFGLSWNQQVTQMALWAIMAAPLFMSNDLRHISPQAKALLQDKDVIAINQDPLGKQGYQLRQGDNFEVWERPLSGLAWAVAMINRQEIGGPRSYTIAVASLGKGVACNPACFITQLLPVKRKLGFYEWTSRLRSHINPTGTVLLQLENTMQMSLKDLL

Turning to `Cc1cc(=O)oc2cc(O[C@H]3O[C@H](CO)[C@H](O)[C@H](O)[C@H]3O)ccc12` [4-methylumbelliferyl-alpha-D-galactopyranoside], the Km was 2000 µM.
